The results in this text go back to US6552208B1, “Fractionation process” (Karlshamns AB, priority 1998, dated 2003).

For the assay, the system named is Normal human dermal fibroblasts. The experiment in a line: UV radiation test in vitro, UV-B. It is filed as cell-based. As to conditions: fibroblasts exposed to test substance 48 hours before UV irradiation; UV dose inducing 50% of cell death. On the procedure: The fractionated low-erucic rapeseed oil of Example 1, the canola oil fraction, was tested in vitro for its ability to decrease the damage to cells exposed to free radicals generated by exposure to UV radiation. Normal human dermal fibroblasts were exposed to the test substance at different concentrations 48 hours before UV irradiation. DL-α-tocopheryl acetate was used as a positive control in the study. The UV dose inducing 50% of cell death was determined after the treatment by exposing the cell cultures to UV-A and UV-B radiation at different intensities.

As for `CC(=O)Oc1c(C)c(C)c2c(c1C)CC[C@@](C)(CCC[C@H](C)CCC[C@H](C)CCCC(C)C)O2` (racemic) [DL-α-tocopheryl acetate], the “protection against UV-B radiation” value was “neither the fractionated rapeseed oil of Example 1 or the DL-α-tocopheryl acetate gave any protection”.
